Test results reported in US7855076B2, “Use of discoidin domain receptor 1 (DDR1) and agents that affect the DDR1/collagen pathway” (The United States of America as represented by the …, priority 2002, dated 2010).

What was measured:
Type in all cases: cell-based, human
DDR1 mRNA = DDR1 mRNA expression in PBMC by Northern blotting; conditions: 8 hours, TNF-α 5 ng/ml, IL-1β 10 ng/ml, IFN-γ 50 U/ml, GM-CSF 10 ng/ml, LPS 1 μg/ml, PHA 5 μg/ml
Description: PMN and PBMC were maintained at a density of 5×10^6 cells/ml in the complete medium in six-well tissue culture cluster (Coster, Cambridge, Mass.; 3 ml/well). Total RNA was extracted from each culture by using TRIZOL® Reagent. PolyA mRNA was purified on Oligotex columns (Qiagen, Valencia, Calif.). Northern blot analysis was performed as described (Yoshimura, J. Immunol. 150:5025, 1993), except that ULTRAhyb (Ambion) was used. A human DDR1 cDNA (757-bp) was obtained by PCR from a U-105 human glioblastoma cell line cDNA library and was ligated into the EcoRI/HindIII site of the pBluescript (Stratagene, La Jolla, Calif.). The sense primer was 5′-[…]-3′ (SEQ ID NO: 2; corresponding to residues between 68 and 87 in the nucleotide sequence of the trkE cDNA, GenBank accession number X74979) and the antisense primer was 5′-[…]-3′ (SEQ ID NO: 3; corresponding to residues between 805 and 824 in the nucleotide sequence of the trkE cDNA).
Freshly isolated PBMC expressed only a low level of DDR1 mRNA. The expression level was increased about eightfold when the cells were incubated in either RPMI 1640 or RPMI 1640 containing 10% FCS.

DDR1 [1] = assay: DDR1 autophosphorylation and MAP kinase phosphorylation in iDC and mDC; conditions: DCs, TNF-α stimulation
Description: To measure the kinetics of DDR1autophosphorylation, 1×10^7 iDC or TNF-α-induced mDCs were plated on dishes, serum-starved in RPMI 1640 containing 1% FCS for 10 hours, and subsequently activated with agonistic anti-DDR1 IgM (5 μg/ml) or control IgM (5 ug/ml) for varous times. Cell lysates were prepared, DDR1 was immunoprecipitated using anti-DDR1 Ab (C-20), and tyrosine-phosphorylation of DDR1 was analyzed by Western blotting using a mouse monoclonal anti-phosphotyrosine IgG and a sheep anti-mouse IgG coupled with horseradish peroxidase. Peroxidase activity was visualized by the Enhanced Chemiluminescence Detection System (Amersham).
To detect phosphorylation of MAP kinases, ATF2, or MKK3/6, iDC and mDC were activated with agonistic 513 anti-DDR1 IgM or control IgM for varous times. Since TNF-α is known to activate p38 MAP kinase (Ono and Han, Cell. Signal. 12:1-13, 2000), cells were washed 6 times with PBS before activation in order to minimize the effect of TNF-α. Twenty μl of cell lysates were directly mixed with 20 μl of sample buffer and then analyzed.
Target sequence in this assay (Q08345 19-417 limits assumed): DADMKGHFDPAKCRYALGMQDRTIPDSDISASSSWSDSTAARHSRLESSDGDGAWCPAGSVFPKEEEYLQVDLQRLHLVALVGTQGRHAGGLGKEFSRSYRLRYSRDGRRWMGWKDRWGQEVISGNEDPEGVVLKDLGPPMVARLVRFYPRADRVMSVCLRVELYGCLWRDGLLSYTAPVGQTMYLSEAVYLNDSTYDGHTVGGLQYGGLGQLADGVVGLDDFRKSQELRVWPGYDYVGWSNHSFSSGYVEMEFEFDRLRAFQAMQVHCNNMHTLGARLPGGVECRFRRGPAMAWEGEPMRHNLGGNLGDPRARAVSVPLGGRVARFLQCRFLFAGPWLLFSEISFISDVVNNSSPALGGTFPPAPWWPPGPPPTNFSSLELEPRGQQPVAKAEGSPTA

DDR1 [2] = assay: Cell-surface DDR1 expression on PMN by flow cytometry
Description: PMN were incubated in presence of IFN-γ or GM-CSF for 24 hours and the expression of cell-surface DDR1 was measured by flow cytometry using an antibody raised against the extracellular domain of the receptor. One hundred thousand cells were suspended in 50 μl of cold PBS containing 0.1% NaN3, […] BSA and 200 μg/ml human IgG in a Falcon 2052, tube, and incubated for 10 minutes on ice. One μg of anti-DDR1 rabbit polyclonal antibody raised aginst the N-terminus of DDR1 (Transgenic, Inc., Kumamoto, Japan), or control mouse IgG was added to each tube and the cells were incubated for another 15 minutes on ice. The cells were washed with PBS, and then incubated with 1 μg of FITC-conjugated goat anti-mouse IgG for 15 minutes on ice. At the end of incubation, PI was added to each tube (100 μM). The cells were washed by PBS, and subsequently analyzed by using a FACS scan (Becton Dickinson). Dead cells, determined by the incorporation of PI, were gated out. Results were processed by using the Cellquest software (Becton Dickinson).

THP-1 cells = assay: Proliferation of PMA-treated THP-1 cells; conditions: DDR1b-overexpressing cells on collagen-coated plates, 10 nM PMA, 24 hour and 48 hour, compared with parental, mock or DDR1a cells
Description: One hundred μl of cell suspension (5×10^6/ml) were plated in 96-well tissue culture plates either uncoated or collagen-coated, and incubated at 37° C. in the presence of 10 nM phorbol 12-myristate 13 acetate (PMA) for 24 or 48 hours (FIG. 4A). Data are shown as the mean ±SD of 10 wells. *p<0.01 by Bonferroni/Dun with One Way Factorial ANOVA. Twenty μl of each cell lysate were loaded and Western blotting was performed. The expression levels of DDR1 in DDR1a- or DDR1b-overexpressing THP-1 cells before and after treatment with PMA plus collagen are shown in FIG. 4C. […]
One hundred μl of cell suspension (5×10^6/ml) were plated in 96-well tissue culture plates either collagen-coated or non-coated, and incubated at 37° C. in 5% CO2 humidified atmosphere in the presence of 10 nM PMA for 48 hours. Cell proliferation was measured by using the CellTiter 96 Aqueous Non-Radioactive Cell Proliferation Assay Kit (Promega, Madison, Wis.) according to the manufacture's protocol. Trypan-blue staining was also used to measure the number of live cells in each culture.

IκBα = assay: IκB degradation in PMA-treated THP-1 cells, Western blotting; conditions: 10 nM PMA
Description: Mock-transduced and DDR1b-overexpressing THP-1 cells were plated at 5×10^6cells/ml and treated with 10 nM PMA on collagen-coated plates for varous times. Ten million cells were lysed on ice for 20 minutes in a buffer containing 50 mM NaCl, 20 mM Tris-HCl, 50 mM sodium fluoride, 30 mM Na4P2O7, 5 mM EGTA, 3 mM sodium orthovanadate, 1% Triton X-100; 1 mg/ml leupeptin, 1 mM PMSF, 1 mg/ml aprotinin, 1 mg/ml pepstatin A and 100 μM sodium orthovanadate in […] lysates were spun and the supernatants were collected. Each sample was boiled in double-strength sample buffer for 10 minutes, electrophoresed on 10% polyacrylamide gels by SDS-PAGE, and transferred electrophoretically to nitrocellulose membranes at 150 mA for 1 hour by a semi-dry system. The membranes were incubated with mouse monoclonal anti-IκB antibody followed by sheep anti-mouse IgG coupled with horseradish peroxidase. Peroxidase activity was visualized by the Enhanced Chemiluminescence Detection System (Amersham).

Row | Substance | level of DDR1 mRNA expression (DDR1 mRNA) | activation of ERK1, ERK2, JNK, MKK3/6 (DDR1 [1]) | IFNγ-induced DDR1 expression (DDR1 [2]) | decrease of proliferation (THP-1 cells) | amounts of IκBα (IκBα; DDR1b-overexpressing cells, at 2 and 3 hours) | level of IκBα (IκBα; mock-transduced cells)
1 | TNF-α | further augmented | rapidly activated | almost completely inhibited | – | – | –
2 | collagen | – | – | – | about 50% | decreased | unchanged
